Assay results reported in a melting point compilation (Tetko et al.; mined from patent text by program, amines drawn as free bases though some values may be those of a salt).

With `COC(=O)c1c(N)c2c(c(N)c1C#N)C(=O)c1ccccc1C2=O` the melting point was 215 to 218 °C.
With `O=c1ccn(-c2cccc(C(F)(F)F)c2)nc1-c1nncn1-c1ccccc1` the melting point was 103 to 104 °C.
`COc1ccc([C@@H]2Sc3ccccc3N(CCN(C)C)C(=O)[C@@H]2OC(=O)c2ccc([N+](=O)[O-])cc2Cl)cc1` showed a melting point of 153 to 156 °C.
With `CN(C(=O)c1ccc2nsnc2c1)C1CCOCC1` the melting point was 106 to 108 °C.
`Cc1cc(F)ccc1-c1ccc(S(=O)(=O)N2c3ccccc3CC2C(=O)O)cc1` (centres undefined) gave a melting point of 62 to 67 °C.
In the case of `O=C1c2cccc(NC(=S)Nc3ccccn3)c2C2CCCCN12` (centres undefined), the melting point is reported as 195 °C.
`CC(OC1CCCCO1)C(O)(Cn1cncn1)c1ccc(F)cc1F` (centres undefined) showed a melting point of 93 to 95 °C.
Work on `COC(=O)c1cc([N+](=O)[O-])ccc1OC(C)=O` yielded a melting point of 70 to 72 °C.
`COc1ccc(-c2sc3cc(OC)ccc3c2C(=O)c2ccccc2)cc1` showed a melting point of 100 to 102 °C.
`CC(=O)ON=C(c1ccccc1)c1cc(C(C)(C)C)c(O)c(C(C)(C)C)c1` gave a melting point of 136 to 137 °C.
`O=S1(=O)N=CN(C2CC2)c2cc(Br)ccc21` gave a melting point of 268 to 271 °C.
With `[N-]=[N+]=NC1(O)CC(n2ccc(N)nc2=O)OC1CO` (centres undefined) the melting point was 174 to 176 °C.
Molecule `COc1ccccc1-n1c(=O)[nH]c2c(C(N)=O)nc(-c3cccc(OC(F)(F)F)c3)nc21` has a melting point of 269 to 272 °C.
With `CCOC(=O)CNC(=O)OCc1ccc(OC(C)=O)c(OC)c1` the melting point was 62 to 64 °C.
Molecule `O=C(O)c1cn(C2CC2)c2cc(N3CCNC(c4ccco4)C3)c(F)cc2c1=O` (centres undefined) has a melting point of 176 °C.
`Cc1cc(NC(=O)CC(C)(C)C)c2c(c1)C(c1ccc(C(C)C)cc1)C(C)(C)O2` (centres undefined) showed a melting point of 64 to 68 °C.
For `CCCOc1ccccc1C=C1Oc2ccc(C(=O)O)cc2C1=O`, the melting point was 228 to 229 °C.
`CCOC(=O)c1oc2cccc(OC)c2c1C` showed a melting point of 67 to 69 °C.
Molecule `O=C(OC1CNC(=N[N+](=O)[O-])NC1)C1(C2CCCCC2)CCCCC1` (centres undefined) has a melting point of 196 to 197 °C.
With `CS(=O)(=O)c1ccc(-c2cc(=O)cc(CO)o2)cc1` the melting point was 120 °C.
Work on `N#Cc1nn(-c2c(Cl)cc(C(F)(F)F)cc2Cl)c(N)c1SC(F)(F)F` yielded a melting point of 163 °C.
In the case of `Cc1cc(Cn2nc(C(F)(F)C(F)(F)F)nc2C(F)(F)F)ccc1N`, the melting point is reported as 60 to 63 °C.
Work on `CC1C(=O)c2c(cc(OCC(=O)O)c(Cl)c2Cl)C1C` (centres undefined) yielded a melting point of 174 to 176 °C.
Work on `O=C(Cc1ccc(Cl)cc1)NCc1cccc2c1C(=O)N(C1CCC(=O)NC1=O)C2=O` (centres undefined) yielded a melting point of 243 to 245 °C.
Molecule `O=C1Nc2ccc(Cl)cc2C(c2ccccc2)=N[C@@H]1Cc1ccccc1` has a melting point of 154 to 157 °C.
`CNC(=O)c1ccccc1C(O)c1ccc(F)cc1` (centres undefined) gave a melting point of 133 to 134 °C.
`CS(=O)(=O)Nc1ccc(C2CCN(c3ccncc3)CC2)cc1` showed a melting point of 269 to 271 °C.
In the case of `C#CCOc1ccc(C)nc1`, the melting point is reported as 32 to 34 °C.
Molecule `Oc1ccc2c(c1)CCCC2Cc1c[nH]cn1` (centres undefined) has a melting point of 200 to 205 °C.
Molecule `O=C1C(=Cc2ccccc2)COc2ccccc21` has a melting point of 112 to 113 °C.
In the case of `Cc1ccc(S(=O)(=O)N2[C@@H](c3nc(C)no3)CC[C@H]2c2ccc(F)cc2)cc1` (racemic), the melting point is reported as 128 °C.
`CC(C)c1nc(COC(=O)N[C@H](C(=O)N[C@@H](Cc2ccccc2)C[C@H](O)[C@H](Cc2ccccc2)NC(=O)OCc2cncs2)C(C)C)cs1` showed a melting point of 142 to 145 °C.
Molecule `CCOC(=O)COc1ccc(C(=O)c2ccn[nH]2)c(Cl)c1Cl` has a melting point of 147 to 149 °C.
For `Cc1ccc(C(C)NC(=O)C2CC(=O)c3cc(F)ccc3O2)cc1` (single isomer, unassigned; (+)), the melting point was 157 °C.
Molecule `O=C1c2ccccc2C(=O)N1CCN1CCC(=C2c3ccccc3C=Cc3ccccc32)CC1` has a melting point of 190 °C.
For `COc1ccc(-c2ccncc2)cc1Br`, the melting point was 82 to 84 °C.
Molecule `O=[N+]([O-])c1ccc(N2CCN(c3ccc(O)cc3)CC2)cc1` has a melting point of 260 °C.
For `C#Cc1cn(C2CC(O)C(COC(=O)C(C)(C)C)O2)c(=O)[nH]c1=O` (centres undefined), the melting point was 64 to 66 °C.
Work on `O=CN1CCC(c2nn(-c3ccc(C(F)(F)F)cc3)c3ccccc23)CC1` yielded a melting point of 109 to 111 °C.
